# System: recombinant NL4-3 virus (Renilla luciferase in nef, Gag P373S; NLRluc) in MT-2 cells
# Experiment: whole plant or invertebrate
# Format: cell-based, HIV
# Settings: Renilla, NL43, luciferase activity in cells infected for 4-5 days with NLRluc recombinants, serial dilutions of inhibitor; class symbols (key in Table 1); read-out: EC50
# Method in brief: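 Cells grown in serum-supplemented RPMI were exposed to graded inhibitor concentrations during a 4-5 day infection. Antiviral effect was then derived from luminescence after adding a combined lysis and dual-luciferase substrate mixture to each well.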
row,SMILES,EC50 [nM]
1,"C=C(C)[C@@H]1CC[C@]2(NCCCN3CCS(=O)(=O)CC3)CC[C@]3(C)[C@H](CC[C@@H]4[C@@]5(C)CC=C(c6ccc(C(=O)O)cc6)C(C)(C)[C@@H]5CC[C@]43C)[C@@H]12 [Example 144, 4-[(1R,3aS,5aR,5bR,7aR,11aS,11bR,13aR,13bR)-3a-[[3-(1,1-dioxido-4-thiomorpholinyl)propyl]amino]-2,3,3a,4,5,5a,5b,6,7,7a,8,11,11a,11b,12,13,13a,13b-octadecahydro-5a,5b,8,8,11a-pentamethyl-1-(1-methylethenyl)-1H-cyclopenta[a]chrysen-9-yl]-benzoic acid]",< 100
2,"C=C(C)[C@@H]1CC[C@]2(N(CCN3CCS(=O)(=O)CC3)C(C)=O)CC[C@]3(C)[C@H](CC[C@@H]4[C@@]5(C)CC=C(c6ccc(C(=O)O)cc6)C(C)(C)[C@@H]5CC[C@]43C)[C@@H]12 [Example 178, 4-((1R,3aS,5aR,5bR,7aR,11aS,11bR,13aR,13bR)-3a-(acetyl(2-(1,1-dioxido-4-thiomorpholinyl)ethyl)amino)-1-isopropenyl-5a,5b,8,8,11a-pentamethyl-2,3,3a,4,5,5a,5b,6,7,7a,8,11,11a,11b,12,13,13a,13b-octadecahydro-1H-cyclopenta[a]chrysen-9-yl)benzoic acid]",< 100
3,"C=C(C)[C@@H]1CC[C@]2(NCCN3CCN(S(=O)(=O)c4ccc5c(c4)OCCO5)CC3)CC[C@]3(C)[C@H](CC[C@@H]4[C@@]5(C)CC=C(c6ccc(C(=O)O)cc6)C(C)(C)[C@@H]5CC[C@]43C)[C@@H]12 [Example B52, 4-((1R,3aS,5aR,5bR,7aR,11aS,11bR,13aR,13bR)-3a-((2-(4-((2,3-dihydrobenzo[b][1,4]dioxin-6-yl)sulfonyl)piperazin-1-yl)ethyl)amino)-5a,5b,8,8,11a-pentamethyl-1-(prop-1-en-2-yl)-2,3,3a,4,5,5a,5b,6,7,7a,8,11,11a,11b,12,13,13a,13b-octadecahydro-1H-cyclopenta[a]chrysen-9-yl)benzoic acid]",< 100
4,"CC(C)[C@@H]1CC[C@]2(NCCN3CCS(=O)(=O)CC3)CC[C@]3(C)[C@H](CC[C@@H]4[C@@]5(C)CC[C@H](c6ccc(C(=O)O)cc6)C(C)(C)[C@@H]5CC[C@]43C)[C@@H]12 [Example B2, 4-((1S,3aS,5aR,5bR,7aS,9S,11aS,11bR,13aR,13bR)-3a-((2-(1,1-dioxidothiomorpholino)ethyl)amino)-1-isopropyl-5a,5b,8,8,11a-pentamethylicosahydro-1H-cyclopenta[a]chrysen-9-yl)benzoic acid]",< 100
5,"C=C(C)[C@@H]1CC[C@]2(NCCNCCC(=O)N(C)C)CC[C@]3(C)[C@H](CC[C@@H]4[C@@]5(C)CC=C(c6ccc(C(=O)O)cc6)C(C)(C)[C@@H]5CC[C@]43C)[C@@H]12 [Example 142, 4-((1R,3aS,5aR,5bR,7aR,11aS,11bR,13aR,13bR)-3a-(2-(3-(dimethylamino)-3-oxopropylamino)ethylamino)-5a,5b,8,8,11a-pentamethyl-1-(prop-1-en-2-yl)-2,3,3a,4,5,5a,5b,6,7,7a,8,11,11a,11b,12,13,13a,13b-octadecahydro-1H-cyclopenta[a]chrysen-9-yl)benzoic acid]",< 100
6,C=C(C)[C@@H]1CC[C@]2(NC(=O)NCC3(NC(=O)OC(C)(C)C)CC3)CC[C@]3(C)[C@H](CC[C@@H]4[C@@]5(C)CC=C(c6ccc(C(=O)O)cc6)C(C)(C)[C@@H]5CC[C@]43C)[C@@H]12 [Example 2],< 100
7,"C=C(C)[C@@H]1CC[C@]2(NCCNS(=O)(=O)C3CC3)CC[C@]3(C)[C@H](CC[C@@H]4[C@@]5(C)CC=C(c6ccc(C(=O)O)cc6)C(C)(C)[C@@H]5CC[C@]43C)[C@@H]12 [Example B31, 4-((1R,3aS,5aR,5bR,7aR,11aS,11bR,13aR,13bR)-3a-((2-(cyclopropanesulfonamido)ethyl)amino)-5a,5b,8,8,11a-pentamethyl-1-(prop-1-en-2-yl)-2,3,3a,4,5,5a,5b,6,7,7a,8,11,11a,11b,12,13,13a,13b-octadecahydro-1H-cyclopenta[a]chrysen-9-yl)benzoic acid]",< 100

# Reference: patent publication US20140343000A1 (priority 2011, published 2014)
